Data published in paper PMC10388362, “Fluorescent Ligands Enable Target Engagement Studies for the Intracellular Allosteric Binding Site of the Chemokine Receptor CXCR2” (Journal of Medicinal Chemistry, 2023).
Where “and” joins values, the source holds several entries; their conditions need not be identical. Equal values may be shown once. Read-outs that look alike come from different tables or passages of the source.

Key:
CXCR2 [1] = target: T1, CXCR2 (Homo sapiens, UniProt P25025); assay: Membrane-based NanoBRET saturation assay (CXCR2_Nluc membranes); assay type: binding; details: cell-free
T1 construct: Promega pNLF1-C (Nluc) #CXCR20TN00; host or cells: HEK293T, transient transfection (PEI)
T1 sequence (P25025 1-360): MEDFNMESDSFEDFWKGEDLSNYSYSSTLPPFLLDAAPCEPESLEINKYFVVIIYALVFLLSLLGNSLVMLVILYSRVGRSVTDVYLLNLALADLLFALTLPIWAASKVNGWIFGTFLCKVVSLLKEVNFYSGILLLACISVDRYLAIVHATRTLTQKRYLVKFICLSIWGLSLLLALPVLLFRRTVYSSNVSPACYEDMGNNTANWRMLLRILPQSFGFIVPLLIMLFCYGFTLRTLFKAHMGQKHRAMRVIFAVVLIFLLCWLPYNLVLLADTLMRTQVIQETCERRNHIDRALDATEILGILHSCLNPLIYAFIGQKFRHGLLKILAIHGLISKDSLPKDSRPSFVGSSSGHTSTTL
Method: Membranes from HEK293T cells transiently expressing the respective GPCR were prepared as follows. The medium of the transfected cells was refreshed after 24 h before cells were harvested 48 h post-transfection. The growth medium was removed, and the cells were carefully washed with cold phosphate-buffered saline (10 mL per Ø 15 cm dish). The cells were detached with 15 mL of ice-cold Tris-EDTA buffer (10 mM Tris, 0.5 mM EDTA, 5.4 mM KCl, 140 mM NaCl, pH 7.4) and subsequently centrifuged with 218g for 8 min. The supernatant was removed and the cells were resuspended in 10 mL of Tris-EDTA buffer. The cells were lysed with an Ultraturrax (20,000 rpm) used five times for 5 s with a 25 s break on ice in between. The lysate was centrifuged at 50,830g for 18 min at 4 °C. The supernatant was discarded, and the pellet was homogenized in a membrane buffer (50 mM Tris, 1 mM EDTA, 5 mM MgCl2, 100 μg/mL bacitracin, 5 μg/mL soybean trypsin inhibitor, pH 7.4) with a glass-teflon homogenizer. Aliquots of 250 μL were shock-frozen in liquid nitrogen and directly stored at −80 °C. Finally, the protein concentration was determined using the Lowry method.[43]
(§1) For the establishment of our NanoBRET binding assay, we referred to a recently published protocol.[45] The fluorescent ligands (9a–c) were dissolved in DMSO (1 mM) and further diluted to varying concentrations in an assay buffer (50 mM Na2HPO4, 50 mM KH2PO4, pH 7.4, 1 mg/mL saponin, 5% FBS) and 5 μL of these dilutions were pipetted to a 384-well plate. To determine the total binding, 5 μL of the assay buffer was added to the corresponding wells, while 5 μL of a solution of 3 in the assay buffer (final assay concentration: 1 μM) was used to determine nonspecific binding. Then, 20 μL of the membrane preparations diluted in the assay buffer (2 μg total protein/well) were added and the plates were incubated for 90 min at 37 °C. Subsequently, 5 μL of a furimazine solution (Promega, Mannheim, Germany, final assay dilution: 1:5000) was added to each well (final assay volume: 35 μL) before measuring luminescence with a CLARIOstar microplate reader using 620/10 and 475/30 nm emission filters after 5 min of incubation in the dark. Bioluminescence resonance energy transfer (BRET) was determined as the ratio of acceptor fluorescence and donor luminescence. The algorithms for one-site saturation binding from PRISM9.5 (GraphPad) were utilized to analyze total, nonspecific, and specific binding. Specific binding signals were calculated as a difference of total and nonspecific binding. If required, netBRET values were calculated as the difference between total BRET values and the values obtained in the absence of a fluorescent ligand. For selectivity studies with CCR2, CCR7, CCR9, and CXCR1, we modified the procedure described above.

CXCR1 = target: T2, CXCR1 (Homo sapiens, UniProt P25024); assay: Membrane-based NanoBRET saturation assay, selectivity (CXCR1_Nluc membranes); assay type: binding; details: cell-free, CXCR1_Nluc membranes
T2 construct: host or cells: HEK293T, transient; membrane preparation
T2 sequence (P25024 1-350): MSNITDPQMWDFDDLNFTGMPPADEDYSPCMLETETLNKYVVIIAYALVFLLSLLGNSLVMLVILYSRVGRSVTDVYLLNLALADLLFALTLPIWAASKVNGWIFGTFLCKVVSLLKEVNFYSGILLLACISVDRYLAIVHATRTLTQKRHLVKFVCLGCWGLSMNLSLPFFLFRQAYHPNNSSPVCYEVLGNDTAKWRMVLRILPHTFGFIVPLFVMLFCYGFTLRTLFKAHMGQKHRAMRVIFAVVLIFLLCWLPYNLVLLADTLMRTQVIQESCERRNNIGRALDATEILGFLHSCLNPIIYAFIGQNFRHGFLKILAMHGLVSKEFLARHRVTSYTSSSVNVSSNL
Method: as §1

CXCR2 [2] = target: T1, CXCR2; details: cited from earlier work
CXCR2 [3] = target: T1, CXCR2; assay: Fluorescence microscopy, displacement of 9a in HEK293 cells stably expressing CXCR2; assay type: cell-based; details: 9a 500 nM
Method: For live cell microscopy, HEK293 cells stably expressing CXCR2 were seeded onto poly-D-lysine (PDL)-coated 8-well μ-slides (Ibidi) at a density of 1.5 × 10^5 cells per well and cultured overnight at 37 °C and 5% CO2. […] Afterward, the fluorescent CXCR2 ligand ((9a) final concentration 500 nM) was added for 60 min at 37 °C, and the cells were washed once with PBS before imaging. For immunostaining, the cells were first fixed with 4% paraformaldehyde solution, washed with PBS, and then blocked for 1 h with 10% goat serum and 1% fatty acid-free bovine serum albumin (BSA) in PBS at 37 °C. As primary antibody, anti-CXCR2 mouse IgG (R&D Systems, catalog # 48311, 1:100 in blocking solution) was added, and the cells were incubated for 1 h at 37 °C. After three washes with PBS, goat anti-mouse IgG (H+L) conjugated to FITC (Sigma-Aldrich, catalog # AP124F, 1:500 in blocking solution) was added for 1 h at 37 °C. The cells were again washed three times with PBS and counterstained with 4′,6-diamidin-2-phenylindole (DAPI) solution (0.1 μg/mL) for 15 min in the dark at room temperature, followed by three washes with PBS. […] Afterward, the fluorescent CXCR2 ligand ((9a) final concentration 500 nM) was added for 30 min at 37 °C and the cells were imaged. Microscopy was carried out on an AxioObserver.Z1 microscope (Carl Zeiss, Jena, Germany) equipped with an ApoTome imaging system and a Heating unit XL S using a Plan-Apochromat ×63/1.40 Oil objective (filter set 43 (red), 38 (green), 49 (blue)). Image processing and line scan analysis were performed with Zen blue Imaging software. The fluorescence intensity values were normalized to vehicle control.

CXCR2 [4] = target: T1, CXCR2; assay: Membrane-based NanoBRET competition assay with 9a; assay type: binding; details: for % comp. @ 70 μM: competitor 70 μM, 9a (50 nM)
Method: Then, 20 μL of the membrane preparation (diluted in assay buffer, 2 μg total protein/well) was added and the plates were incubated for 90 min at 37 °C. Subsequently, 5 μL of a furimazine solution (final assay dilution: 1:5000 in the assay buffer) was added to each well (final assay volume: 35 μL). […] To determine the inhibition constants (Ki) of the nonlabeled ligands, data were analyzed using the one-site-fit Ki equation in PRISM9.5 (GraphPad).

[5] = membranes from HEK293T cells transiently expressing CXCR2_Nluc, read-out: Kd (equilibrium saturation binding)
[6] = competition with 9a (50 nM), CXCR2_Nluc membranes, read-out: pKi (converted)
[7] = Ki of nonfluorescent ligands, cell-free, read-out: cell-free Kd or Ki for CXCR2
[8] = competition with 9a (50 nM), CXCR2_Nluc membranes, read-out: Ki

## Cc1ccc([C@H](Nc2c(Nc3cccc(C(=O)NCc4cn(CCOCCOCCNC(=O)c5ccc(C(=O)[O-])c(-c6c7ccc(=[N+](C)C)cc-7oc7cc(N(C)C)ccc67)c5)nn4)c3O)c(=O)c2=O)C(C)(C)C)o1 [9b, (R)-4-((2-(2-(2-(4-((3-((2-((2,2-Dimethyl-1-(5-methylfuran-2-yl)propyl)amino)-3,4-dioxocyclobut-1-en-1-yl)amino)-2-hydroxybenzamido)methyl)-1H-1,2,3-triazol-1-yl)ethoxy)ethoxy)ethyl)carbamoyl)-2-(6-(dimethylamino)-3-(dimethyliminio)-3H-xanthen-9-yl)benzoate]
CXCR2 [1]; [5]
  Kd: 4.62 ± 0.87 nM
CXCR1
  Kd: 122 ± 5.6 nM

## Cc1ccc([C@H](Nc2c(Nc3cccc(C(=O)NCc4cn(CCCNC(=O)c5ccc(-c6c7ccc(=[N+](C)C)cc-7oc7cc(N(C)C)ccc67)c(C(=O)[O-])c5)nn4)c3O)c(=O)c2=O)C(C)(C)C)o1 [9c, (R)-5-((3-(4-((3-((2-((2,2-Dimethyl-1-(5-methylfuran-2-yl)propyl)amino)-3,4-dioxocyclobut-1-en-1-yl)amino)-2-hydroxybenzamido)methyl)-1H-1,2,3-triazol-1-yl)propyl)carbamoyl)-2-(6-(dimethylamino)-3-(dimethyliminio)-3H-xanthen-9-yl)benzoate]
CXCR2 [1]; Kd of fluorescent ligands, read-out: cell-free Kd or Ki for CXCR2
  Kd: 2 nM
CXCR2 [1]; [5]
  Kd: 2.62 ± 0.78 nM
CXCR1
  Kd: 49.3 ± 0.7 nM

## CC[C@@H](Nc1c(Nc2ccnc(C(=O)N(C)C)c2O)c(=O)c1=O)c1cc(C(C)C)co1 [compound 1]
CXCR2 [2]; reported value ref 4
  IC50: 0.62 nM

## CC[C@@H](Nc1c(Nc2cccc(C(=O)N(C)C)c2O)c(=O)c1=O)c1ccc(C)o1 [compound 2, navarixin]
CXCR2 [3]; fixed HEK293 cells stably expressing CXCR2, competitor 10 μM
  effect of preincubation on membrane-associated 9a fluorescence: virtually blunted all membrane-associated probe fluorescence
CXCR2 [3]; live cell imaging, HEK293 cells stably expressing CXCR2, competitor 10 μM
  effect of preincubation on membrane-based 9a fluorescence: very strong reduction in membrane-based fluorescence

## O=C(Nc1ccc(Cl)c(S(=O)(=O)N2CCNCC2)c1O)Nc1cccc(F)c1Cl [compound 6, elubrixin]
CXCR2 [2]; reported value ref 17
  IC50: 22 nM

## COCCn1cc(CNC(=O)c2cccc(Nc3c(N[C@@H](c4ccc(C)o4)C(C)(C)C)c(=O)c3=O)c2O)nn1 [compound 8, (R)-3-((2-((2,2-Dimethyl-1-(5-methylfuran-2-yl)propyl)amino)-3,4-dioxocyclobut-1-en-1-yl)amino)-2-hydroxy-N-((1-(2-methoxyethyl)-1H-1,2,3-triazol-4-yl)methyl)benzamide]
CXCR2 [4]; [6]
  Ki: 0.427 nM

## CC(=O)C1=C(O)C(=O)N(c2ccc(Br)cc2F)C1C1CCCCC1 (stereo not drawn) [compound 20]
CXCR2 [4]; [7]
  Ki: 2700 nM
CXCR2 [4]; [8]
  Ki: ≥ 261 nM
CXCR2 [4]; [6]
  Ki: 2630 nM

## O=C(O)c1ccccc1Oc1ccc(Cl)cc1NS(=O)(=O)c1ccc(Cl)c(Cl)c1 [compound 21]
CXCR2 [4]; [7]
  Ki: 4900 nM
CXCR2 [4]; [8]
  Ki: ≥ 261 nM
CXCR2 [4]; [6]
  Ki: 4680 nM

## Cc1ccc([C@H](NC2=NS(=O)(=O)N=C2Nc2ccc(C)c(C(=O)N(C)C)c2O)C(C)(C)C)o1 [compound 22]
CXCR2 [4]; [7]
  Ki: 261 nM
CXCR2 [4]; [8]
  Ki: ≥ 261 nM and 300 nM
CXCR2 [4]; [6]
  Ki: 251 nM

## CC(C)(C)c1ccc(S(=O)(=O)Nc2ccc(Cl)cc2C(=O)c2cc[n+]([O-])cc2)cc1 [compound 23, vercirnon]
CXCR2 [4]; Ki of nonfluorescent ligands, cell-free
  cell-free Kd or Ki for CXCR2 [nM]: n.i.
CXCR2 [4]; [8]
  Ki: ≥ 261 nM
CXCR2 [4]; CXCR2_Nluc membranes
  % comp. @ 70 μM: -3%

## CC(C)(C)c1ccc(S(=O)(=O)Nc2ccc(Cl)cc2-c2cncnc2N)cc1 [compound 24]
CXCR2 [4]; [8]
  Ki: ≥ 261 nM
CXCR2 [4]; CXCR2_Nluc membranes
  % comp. @ 70 μM: 28%
